Where two headings read alike, the source gives them in different places.
How the values were obtained:
[1] = formulated in crystalline forms, animals; cited from earlier work
[2] = cited from earlier work
[3] = Lonafarnib serum concentration in HDV patients, Example 3; format: in vivo, human; settings: for LNF Serum Concentration at Week 6 / concentration at 6 weeks: oral; for LNF Serum Concentration at Week 6: listed as LNF; for concentration at 6 weeks: human, serum, po, read-out: LNF Serum Concentration at Week 6
Experimental: Serum levels of lonafarnib can be measured using art-known methods. As used herein, a serum lonafarnib level or concentration can be measured from a serum sample obtained from a subject periodically (such as weekly, biweekly, monthly or according to other schedules) and the levels during intervening periods can be extrapolated. For example, if a measurement of 4,000 ng/ml is obtained at 4 weeks and a measurement of 6,000 ng/ml is obtained at 6 weeks, for purposes of this analysis it is concluded that the serum level during the intervening two weeks ranged between 4,000 and 6,000 ng/ml. In some embodiments the first measurement is made no earlier than one week after the initiation of oral therapy.
This example describes the anti-HDV effect of combination therapy with separately formulated lonafarnib and ritonavir at several combinations of dosages. Eight patients with chronic HDV infection were divided into four groups and treated with different dose combinations of separately formulated lonafarnib and ritonavir (orally administered) for 42 days under the regimens summarized in Table 10. The patients were followed for an additional period of time after discontinuation of therapy.

[4] = Group 2 (Patients 3-4): lonafarnib 100 mg BID + ritonavir 50 mg QD
[5] = Group 3 (Patients 5-6): lonafarnib 100 mg QD + ritonavir 100 mg QD
[6] = Group 4 (Patients 7-8): lonafarnib 150 mg QD + ritonavir 100 mg QD

SMILES: NC(=O)N1CCC(CC(=O)N2CCC([C@H]3c4ncc(Br)cc4CCc4cc(Cl)cc(Br)c43)CC2)CC1 [lonafarnib]
- bioavailability [1]: low and variable
- stability in solution ([2]; by pH): stable at neutral pH but will hydrolyze in acidic or basic conditions
- water solubility [2]: poorly water soluble
- LNF Serum Concentration at Week 6 [3, 4]: 3044 ng/mL
- LNF Serum Concentration at Week 6 [3, 5]: 1640 ng/mL
- LNF Serum Concentration at Week 6 [3, 6]: 1830 ng/mL
- lonafarnib serum levels (FIG. 6) ([3]; Patient 8, reduced correlation with HDV viral load): ~2,000 ng/mL
- LNF serum concentrations ([3]; QD dosing of ritonavir): 2500 to 3500 ng/mL
- concentration at 6 weeks [3, 4]: 4.03 µg/mL
- concentration at 6 weeks [3, 5]: 2.34 µg/mL
- concentration at 6 weeks [3, 6]: 1.84 µg/mL
- lonafarnib serum levels (FIG. 5) ([3]; one patient, 100 mg BID lonafarnib + 100 mg QD ritonavir, inverse correlation with HDV viral load): ~5,000 ng/mL
